This is an account of results in ChEMBL document CHEMBL1137635, “Multiple antibiotics exert delayed effects against the Plasmodium falciparum apicoplast” (Antimicrob Agents Chemother, 2007).

Data set [1] has as its system Plasmodium falciparum. Nature of the data set: Antimalarial activity as 3rd generation parasitaemia after 96 hrs against chloroquine-sensitive Plasmodium falciparum 3D7 infected human erythrocytes at 1 uM 24-36 hrs post invasion. The format is functional.
Data set [2] relates to Plasmodium falciparum. Nature of the data set: Antimalarial activity as 3rd generation parasitaemia after 96 hrs against chloroquine-sensitive Plasmodium falciparum 3D7 infected human erythrocytes at 1 uM 0-48 hrs post invasion. The format is functional.
Data set [3] has as its system Plasmodium falciparum. Nature of the data set: Antimalarial activity as arrested schizont maturation in chloroquine-sensitive Plasmodium falciparum 3D7 infected human erythrocytes after 48 hrs at 1 uM dosed 96 hrs post infection. The format is functional, organism-based.
Data set [4] has as its system Plasmodium falciparum. As to the kind of experiment: Antimalarial activity as 3rd generation ring-stage chloroquine-sensitive Plasmodium falciparum 3D7 after 48 hrs dose then 48 hrs drug-free. It counts as functional, organism-based. The conditions noted are these: 3D7, 48 h.
Data set [5] in a line: Half life in patient with tuberculosis at 600 mg, po once daily for 15 to 18 days. To be noted: human, in vivo. It counts as ADME, organism-based.
Data set [6] relates to Plasmodium falciparum. Nature of the data set: Antimalarial activity as 3rd generation parasitaemia after 96 hrs against chloroquine-sensitive Plasmodium falciparum 3D7 infected human erythrocytes at 1 uM 0-36 hrs post invasion. It counts as functional.
Data set [7] concerns Plasmodium falciparum. As to the kind of experiment: Antimalarial activity as 2nd generation ring-stage chloroquine-sensitive Plasmodium falciparum 3D7 after 48 hrs by flow cytometry. It counts as functional, organism-based. The conditions noted are these: 3D7, 48 h. A general note: Flow cytometry measures light scatter and fluorescence of single cells or particles in a stream.

Data set [8] concerns Plasmodium falciparum. Nature of the data set: Antimalarial activity as abnormal apicoplast morphology in chloroquine-sensitive ACP1-GFP-labeled Plasmodium falciparum 3D7 trophozoite infected human erythrocytes at 2xIC50 dosed 96 hrs post infection. The format is functional.
Data set [9] has as its system Plasmodium falciparum. Nature of the data set: Antimalarial activity as 3rd generation ring-stage chloroquine-resistant Plasmodium falciparum W2 after 48 hrs dose then 48 hrs drug-free. To be noted: W2, 48 h, read-out: IC50. The format is functional, organism-based.
The subject of data set [10] is Plasmodium falciparum. As to the kind of experiment: Antimalarial activity as 3rd generation parasitaemia after 96 hrs against chloroquine-sensitive Plasmodium falciparum 3D7 infected human erythrocytes at 1 uM 24-48 hrs post invasion. The format is functional.
Data set [11] deals with Plasmodium falciparum. As to the kind of experiment: Antimalarial activity as 3rd generation parasitaemia after 96 hrs against chloroquine-sensitive Plasmodium falciparum 3D7 infected human erythrocytes at 1 uM 0-24 hrs post invasion. It counts as functional.
Data set [12] deals with Plasmodium falciparum. As to the kind of experiment: Antimalarial activity in chloroquine-sensitive ACP1-GFP-labeled Plasmodium falciparum 3D7 after 48 hrs at 2xIC50 dosed 96 hrs post infection. The format is functional, organism-based.
Data set [13] deals with Plasmodium falciparum. Nature of the data set: Antimalarial activity as segregation of apicoplasts against chloroquine-sensitive ACP1-GFP-labeled Plasmodium falciparum 3D7 schizont infected human erythrocytes at 1 uM 96 hrs post infection. It counts as functional, organism-based.
The nature of data set [14]: Cmax in patient with tuberculosis at 600 mg, po once daily for 15 to 18 days. The arrangement: dose 600 mg, route oral. The format is ADME, organism-based. The conditions noted are these: human, in vivo.
In data set [15] the test system is Plasmodium falciparum. Nature of the data set: Antimalarial activity as 3rd generation parasitaemia after 96 hrs against chloroquine-sensitive Plasmodium falciparum 3D7 infected human erythrocytes at 1 uM 12-48 hrs post invasion. It counts as functional.
Data set [16] deals with Plasmodium falciparum. As to the kind of experiment: Antimalarial activity as 2nd generation ring-stage chloroquine-resistant Plasmodium falciparum W2 after 48 hrs by flow cytometry. The format is functional, organism-based. The conditions noted are these: W2, 48 h.
For data set [17], the system named is Plasmodium falciparum. As to the kind of experiment: Antimalarial activity as 3rd generation parasitaemia after 96 hrs against chloroquine-sensitive Plasmodium falciparum 3D7 infected human erythrocytes at 1 uM 12-36 hrs post invasion. The format is functional.
Data set [18] relates to Plasmodium falciparum. Nature of the data set: Antimalarial activity as parasitaemia against chloroquine-sensitive ACP1-GFP-labeled Plasmodium falciparum 3D7 trophozoite infected human erythrocytes at 2xIC50 dosed 96 hrs post infection. It counts as functional.
The test system of data set [19] is Plasmodium falciparum. Nature of the data set: Antimalarial activity as 3rd generation parasitaemia after 96 hrs against chloroquine-sensitive Plasmodium falciparum 3D7 infected human erythrocytes at 1 uM 0-12 hrs post invasion. It counts as functional.
Data set [20] relates to Plasmodium falciparum. Nature of the data set: Antimalarial activity as abnormal apicoplast morphology in chloroquine-sensitive ACP1-GFP-labeled Plasmodium falciparum 3D7 after 48 hrs at 2xIC50 dosed 96 hrs post infection. The format is functional, organism-based.
The test system of data set [21] is Plasmodium falciparum. Nature of the data set: Antimalarial activity as 3rd generation parasitaemia after 96 hrs against chloroquine-sensitive Plasmodium falciparum 3D7 infected human erythrocytes at 1 uM treated 12-24 hrs post invasion. The format is functional.
Data set [22] relates to Plasmodium falciparum. Nature of the data set: Antimalarial activity as 3rd generation parasitaemia after 96 hrs against chloroquine-sensitive Plasmodium falciparum 3D7 infected human erythrocytes at 1 uM 36-48 hrs post invasion. It counts as functional.
Data set [23] has as its system Plasmodium falciparum. Nature of the data set: Antimalarial activity as segregation of apicoplasts against chloroquine-sensitive Plasmodium falciparum 3D7 infected human erythrocytes at 1 uM 96 hrs post infection. The format is functional, organism-based.
Data set [24] in a line: Tmax in patient with tuberculosis at 600 mg, po once daily for 15 to 18 days. The conditions noted are these: human, in vivo. It counts as ADME, organism-based.
In data set [25] the test system is Plasmodium falciparum. Nature of the data set: Antimalarial activity as 2nd generation parasitaemia after 48 hrs against chloroquine-sensitive Plasmodium falciparum 3D7 infected human erythrocytes at 6 uM 24-36 hrs post invasion. It counts as functional.
The nature of data set [26]: Tmax in patient with severe malaria at 200 mg, perorally. It counts as ADME, organism-based. The conditions noted are these: human, in vivo, po.
The test system of data set [27] is Plasmodium falciparum. As to the kind of experiment: Antimalarial activity as trophozoite arrest after 24 hrs against chloroquine-sensitive Plasmodium falciparum 3D7 infected human erythrocytes at 6 uM 96 hrs post infection. It counts as functional, organism-based.
Data set [28] has as its system Plasmodium falciparum. Nature of the data set: Antimalarial activity as 2nd generation parasitaemia after 48 hrs against chloroquine-sensitive Plasmodium falciparum 3D7 infected human erythrocytes at 6 uM 0-48 hrs post invasion. The format is functional.
For data set [29], the system named is Plasmodium falciparum. Nature of the data set: Antimalarial activity as 2nd generation parasitaemia after 48 hrs against chloroquine-sensitive Plasmodium falciparum 3D7 infected human erythrocytes at 6 uM 12-36 hrs post invasion. The format is functional.
For data set [30], the system named is Plasmodium falciparum. Nature of the data set: (§1) Antimalarial activity as 2nd generation parasitaemia after 48 hrs against chloroquine-sensitive Plasmodium falciparum 3D7 infected human erythrocytes at 6 uM 0-24 hrs post invasion. It counts as functional.
Data set [31] relates to Plasmodium falciparum. Nature of the data set: Antimalarial activity as 2nd generation parasitaemia after 48 hrs against chloroquine-sensitive Plasmodium falciparum 3D7 infected human erythrocytes at 6 uM 12-48 hrs post invasion. It counts as functional.
The subject of data set [32] is Plasmodium falciparum. Nature of the data set: Antimalarial activity as 2nd generation parasitaemia after 48 hrs against chloroquine-sensitive Plasmodium falciparum 3D7 infected human erythrocytes at 6 uM 12-24 hrs post invasion. The format is functional.
Data set [33] relates to Plasmodium falciparum. Described as §1. It counts as functional. This is another data set of the same source.
For data set [34], the system named is Plasmodium falciparum. As to the kind of experiment: Antimalarial activity as 2nd generation parasitaemia after 48 hrs against chloroquine-sensitive Plasmodium falciparum 3D7 infected human erythrocytes at 6 uM 0-12 hrs post invasion. The format is functional.
Data set [35] has as its system Plasmodium falciparum. As to the kind of experiment: Antimalarial activity as 2nd generation parasitaemia after 48 hrs against chloroquine-sensitive Plasmodium falciparum 3D7 infected human erythrocytes at 6 uM 36-48 hrs post invasion. It counts as functional.
Data set [36] concerns Plasmodium falciparum. Nature of the data set: Antimalarial activity as 2nd generation parasitaemia after 48 hrs against chloroquine-sensitive Plasmodium falciparum 3D7 infected human erythrocytes at 6 uM 24-48 hrs post invasion. The format is functional.

Molecules are shown by their SMILES. Active and inactive are the calls of the source. The rule behind the calls is not given here.

As to `C[C@H]1c2cccc(O)c2C(=O)C2=C(O)[C@]3(O)C(=O)C(C(N)=O)=C(O)[C@@H](N(C)C)[C@@H]3[C@@H](O)[C@@H]21.O` [DOXYCYCLINE], the Activity in the data set on Plasmodium falciparum [1] was found to be 41%; in the data set with Plasmodium falciparum [2], 9%; in the data set with Plasmodium falciparum [6] it was 24%; in the data set on Plasmodium falciparum [8], 83.6%; in the data set with Plasmodium falciparum [10] it was 87%; in the data set on Plasmodium falciparum [11], 69%. In addition, the Activity turned out to be 13% in the data set on Plasmodium falciparum [15]; 12% with Plasmodium falciparum [17]; 97.2% in the data set on Plasmodium falciparum [18]; 89% in the data set on Plasmodium falciparum [19]; 44% in the data set on Plasmodium falciparum [21]; 121% in the data set with Plasmodium falciparum [22]. Further, the result in the data set with Plasmodium falciparum [3] was inactive. In addition, the IC50 in the data set with Plasmodium falciparum [4] was determined as 453 nM; in the data set with Plasmodium falciparum [7] it was 5320 nM; with Plasmodium falciparum [9], 211 nM; in the data set with Plasmodium falciparum [16], 3300 nM. Moreover, in data set [5], the half-life is 7 h. Also, the result with Plasmodium falciparum [12], in the data set with Plasmodium falciparum [13], in the data set with Plasmodium falciparum [20] and in the data set with Plasmodium falciparum [23] was Active. In [14], this molecule returned a Cmax of 6.9 µM. In addition, in data set [24], the Tmax turned out to be 2 h.

Consider `CO[C@H]1/C=C/O[C@@]2(C)Oc3c(C)c(O)c4c(O)c(c(/C=N/N5CCN(C)CC5)c(O)c4c3C2=O)NC(=O)/C(C)=C\C=C\[C@H](C)[C@H](O)[C@@H](C)[C@@H](O)[C@@H](C)[C@H](OC(C)=O)[C@@H]1C` [RIFAMPIN], for which the IC50 turned out to be 2830 nM in the data set on Plasmodium falciparum [4], 2990 nM in the data set with Plasmodium falciparum [7], 528 nM in the data set on Plasmodium falciparum [9] and 274 nM with Plasmodium falciparum [16]. The Activity in the data set with Plasmodium falciparum [25] was found to be 49%; with Plasmodium falciparum [28] it was 15%; in the data set on Plasmodium falciparum [29] it was 13%; in the data set with Plasmodium falciparum [30], 16%; with Plasmodium falciparum [31], 13%; in the data set on Plasmodium falciparum [32], 36%. Moreover, the Activity with Plasmodium falciparum [33] is reported as 14%; in the data set on Plasmodium falciparum [34], 65%; with Plasmodium falciparum [35] it was 93%; with Plasmodium falciparum [36] it was 25%. In addition, the Tmax in data set [26] is 1 h. Moreover, the result in the data set on Plasmodium falciparum [27] was Active.

Usually IC50 stands for the point on the concentration scale where inhibition reaches its midpoint. One may read the half-life as how long it takes for the measured level to halve. Lower therefore signals fast loss. The Cmax is the peak of the concentration-time curve. The Tmax is the time from dosing to the highest level.
